Drawing on patent publication US5084453A, “1-carboxy-1-vinyloxyimino aminothiazole cephalosporin derivatives” (priority 1988, dated 1992), this text covers MIC for 3 compounds.

By MIC is commonly meant the lowest concentration found to suppress growth.

Converted amounts (≈) assume the structure as drawn. Like-named read-outs stand apart in the source and are kept apart here. A value given as a limit tells only on which side of the number the result lay.

What all share (test): in vitro antibacterial activity, agar plate dilution method
Type in all cases: cell-based

In assay [1] the test system is Ps. aeruginosa AKR17. Conditions: 10^6 CFU/ml, Mueller Hinton agar, 37° C., 16 hours. The method, then:
(§1) Now, the in vitro antibacterial activities of the compounds of the present invention against various microorganisms, were measured by the following agar plate dilution method.
(§2) One platinum loopfull of each test microorganism incubated overnight in Mueller Hinton broth, was inoculated to Mueller Hinton agar (MH agaer). Such culture media containing various antibiotics in various concentrations were prepared. After incubation at 37° C. for 16 hours, the minimum inhibitory concentrations (MIC μg/ml) were measured.

Assay [2] concerns K. pneumoniae PC1-602. The method, then:
as §1, §2

Assay [3] has as its system P. vulgaris No. 33*. The method, then:
as §1, §2

The subject of assay [4] is K. oxytoca GN10650*. The method, then: as §1, §2
In assay [5] the test system is P. vulgaris HX-19. How it is done:
as §1, §2

For assay [6], the system named is Ps. aeruginosa AK 109. The method, then: as §1, §2
Assay [7] deals with E. cloacae Nek 39*. The method, then: as §1, §2
Assay [8] has as its system E. coli CSH(RE45)*. To be noted: 10^6 CFU/ml, β-Lactamase-producing strain, 37° C., 16 hours. The method, then: as §1, §2
The test system of assay [9] is E. coli NIHJ JC2. To be noted: 10^6 CFU/ml, Mueller Hinton agar, 37° C., 16 hours. The method, then:
as §1, §2

The subject of assay [10] is M. morganii GN5407*. How it is done: as §1, §2
In assay [11] the test system is S. marcescens IAM 1184. How it is done:
as §1, §2

Assay [12] relates to E. cloacae 963. The method, then: as §1, §2
Assay [13] has as its system K. pneumoniae No. 42*. How it is done: as §1, §2
The subject of assay [14] is Ps. aeruginosa IFO3445. How it is done:
as §1, §2

Assay [15] deals with E. coli GN5482*. How it is done:
as §1, §2

Assay [16] has as its system Ps. cepacia 23. How it is done: as §1, §2
In assay [17] the test system is S. aureus 209P NIHJ-JC1. How it is done: as §1, §2
Assay [18] has as its system A. calcoaceticus No. 4. How it is done: as §1, §2
The test system of assay [19] is S. marcescens No. 16-2*. The method, then:
as §1, §2

For assay [20], the system named is E. coli CSH2(RK1)*. To be noted: Escherichia coli, 16 h. How it is done: as §1, §2
The mark [21] stands for this setting: 10^6 CFU/ml, Mueller Hinton agar, 37° C., 16 hours.
The mark [22] stands for this setting: 10^6 CFU/ml, β-Lactamase-producing strain, 37° C., 16 hours.
Setting [23] is: Pseudomonas aeruginosa, AKR17, read-out: MIC.
Setting [24] is: Klebsiella oxytoca, GN10650, 16 h.
[25] abbreviates: Escherichia coli, read-out: MIC.
[26] abbreviates: Escherichia coli, NIHJJC2, read-out: MIC.
Where [27] appears, read: Morganella morganii, GN5407, 16 h.
Setting [28] is: Serratia marcescens, IAM1184, 16 h.
Where [29] appears, read: Enterobacter cloacae, 963, 16 h.

On to `C=C(ON=C(C(=O)N[C@@H]1C(=O)N2C(C(=O)[O-])=C(C[n+]3ccccc3)CS[C@H]12)c1csc(N)n1)C(=O)O` (single isomer, unassigned) [Example 1, 7β-[2-(2-aminothiazol-4-yl)-2-(1-carboxy-1-vinyloxyimino)acetamido]-3-(1-pyridinio)methyl-3-cephem-4-carboxylate (syn-isomer)], for which the MIC is greater than 100 mg/L in [1]; less than 0.006 mg/L in assay [2] (setting [21]); 0.0125 mg/L (≈ 0.0236 µM) in assay [3] (setting [22]); 0.1 mg/L (≈ 0.188 µM) in assay [4] (setting [22]); 0.0125 mg/L (≈ 0.0236 µM) in assay [5] (setting [21]); 1.56 mg/L (≈ 2.94 µM) in assay [6] (setting [21]). The MIC in [7] (setting [22]) was 0.39 mg/L (≈ 0.735 µM); in assay [8], 0.025 mg/L (≈ 0.0471 µM); in [9] it was 0.025 mg/L (≈ 0.0471 µM); in assay [10] (setting [22]), 0.0125 mg/L (≈ 0.0236 µM); in assay [11] (setting [21]), less than 0.006 mg/L; in assay [12] (setting [21]), 0.025 mg/L (≈ 0.0471 µM). In addition, the MIC in assay [13] (setting [22]) was 0.1 mg/L (≈ 0.188 µM); in assay [14] (setting [21]), 0.78 mg/L (≈ 1.47 µM); in assay [15] (setting [22]) it was 0.2 mg/L (≈ 0.377 µM); in assay [16] (setting [21]) it was 3.12 mg/L (≈ 5.88 µM); in assay [17] (setting [21]), 3.12 mg/L (≈ 5.88 µM); in assay [18] (setting [21]), 12.5 mg/L (≈ 23.6 µM). For the same compound, the MIC in assay [19] (setting [22]) was 0.78 mg/L (≈ 1.47 µM).

Regarding `CO/N=C(\C(=O)N[C@@H]1C(=O)N2C(C(=O)O)=C(COC(C)=O)CS[C@H]12)c1csc(N)n1` [Cefotaxime, reference compound], the MIC in assay [1] (setting [23]) is greater than 100 mg/L; in assay [2] (Klebsiella pneumoniae, PC1602, 10^6 CFU/ml, Mueller Hinton agar, 37° C., 16 hours, read-out: MIC), less than 0.006 mg/L; in assay [3] (Proteus vulgaris, 16 h), 0.025 mg/L (≈ 0.0549 µM); in assay [4] (setting [24]), 0.39 mg/L (≈ 0.856 µM); in [5] (Proteus vulgaris, HX19, 10^6 CFU/ml, Mueller Hinton agar, 37° C., 16 hours, read-out: MIC) it was less than 0.006 mg/L; in [6] (Pseudomonas aeruginosa, AK109, 10^6 CFU/ml, Mueller Hinton agar, 37° C., 16 hours, read-out: MIC) it was 12.5 mg/L (≈ 27.4 µM). The MIC worked out at 1.56 mg/L (≈ 3.43 µM) in assay [7] (Enterobacter cloacae, 16 h); 0.1 mg/L (≈ 0.22 µM) in assay [8] (setting [25]); 0.05 mg/L (≈ 0.11 µM) in [9] (setting [26]); 0.05 mg/L (≈ 0.11 µM) in assay [10] (setting [27]); 0.0125 mg/L (≈ 0.0274 µM) in assay [20]; 0.0125 mg/L (≈ 0.0274 µM) in [11] (setting [28]). Also, the MIC in assay [12] (setting [29]) is 0.05 mg/L (≈ 0.11 µM); in assay [13] (Klebsiella pneumoniae, 16 h), 0.05 mg/L (≈ 0.11 µM); in [14] (Pseudomonas aeruginosa, IFO3445, 10^6 CFU/ml, Mueller Hinton agar, 37° C., 16 hours, read-out: MIC), 25 mg/L (≈ 54.9 µM); in assay [15] (Escherichia coli, GN5482, 16 h), 0.39 mg/L (≈ 0.856 µM); in assay [16] (Burkholderia cepacia, 23, 16 h), 6.25 mg/L (≈ 13.7 µM); in [17] (Staphylococcus aureus, 16 h), 1.56 mg/L (≈ 3.43 µM). Also, the MIC in assay [18] (Acinetobacter calcoaceticus, NO.4, 10^6 CFU/ml, Mueller Hinton agar, 37° C., 16 hours, read-out: MIC) is 25 mg/L (≈ 54.9 µM); in [19] (Serratia marcescens, 16 h) it was 6.25 mg/L (≈ 13.7 µM).

`CC(C)(O/N=C(\C(=O)N[C@@H]1C(=O)N2C(C(=O)[O-])=C(C[n+]3ccccc3)CS[C@H]12)c1csc(N)n1)C(=O)O` [Ceftazidime, reference compound]: the MIC was greater than 100 mg/L in [1] (setting [23]); 0.25 mg/L (≈ 0.457 µM) in [2] (Klebsiella pneumoniae, PC1602, 16 h); 0.5 mg/L (≈ 0.915 µM) in assay [3] (Proteus vulgaris, 16 h); 0.1 mg/L (≈ 0.183 µM) in assay [4] (setting [24]); 0.025 mg/L (≈ 0.0457 µM) in [5] (Proteus vulgaris, HX19, 16 h); 0.78 mg/L (≈ 1.43 µM) in [6] (Pseudomonas aeruginosa, AK109, 16 h). Further, the minimal inhibitory concentration (MIC) in assay [7] (Enterobacter cloacae, 16 h) is 1.56 mg/L (≈ 2.85 µM); in [8] (setting [25]) it was 0.2 mg/L (≈ 0.366 µM); in [9] (setting [26]), 0.1 mg/L (≈ 0.183 µM); in [10] (setting [27]), 0.1 mg/L (≈ 0.183 µM); in assay [20] it was 0.1 mg/L (≈ 0.183 µM); in assay [11] (setting [28]), less than 0.006 mg/L. Besides, the MIC is 0.1 mg/L (≈ 0.183 µM) in [12] (setting [29]); 0.39 mg/L (≈ 0.714 µM) in assay [13] (Klebsiella pneumoniae, 16 h); 1.56 mg/L (≈ 2.85 µM) in assay [14] (Pseudomonas aeruginosa, IFO3445, 16 h); 1.56 mg/L (≈ 2.85 µM) in assay [15] (Escherichia coli, GN5482, 16 h); 0.78 mg/L (≈ 1.43 µM) in assay [16] (Burkholderia cepacia, 23, 16 h); 6.25 mg/L (≈ 11.4 µM) in assay [17] (Staphylococcus aureus, 16 h). The MIC was 6.25 mg/L (≈ 11.4 µM) in assay [18] (Acinetobacter calcoaceticus, NO.4, 16 h) and 1.56 mg/L (≈ 2.85 µM) in assay [19] (Serratia marcescens, 16 h).
